For the assay, the target named is Potassium voltage-gated channel subfamily A member 5 (Homo sapiens, UniProt P22460). Nature of the assay: Inhibition of human Kv1.5 channel expressed in mouse L929 cells.
Chain of Potassium voltage-gated channel subfamily A member 5 (P22460 whole entry): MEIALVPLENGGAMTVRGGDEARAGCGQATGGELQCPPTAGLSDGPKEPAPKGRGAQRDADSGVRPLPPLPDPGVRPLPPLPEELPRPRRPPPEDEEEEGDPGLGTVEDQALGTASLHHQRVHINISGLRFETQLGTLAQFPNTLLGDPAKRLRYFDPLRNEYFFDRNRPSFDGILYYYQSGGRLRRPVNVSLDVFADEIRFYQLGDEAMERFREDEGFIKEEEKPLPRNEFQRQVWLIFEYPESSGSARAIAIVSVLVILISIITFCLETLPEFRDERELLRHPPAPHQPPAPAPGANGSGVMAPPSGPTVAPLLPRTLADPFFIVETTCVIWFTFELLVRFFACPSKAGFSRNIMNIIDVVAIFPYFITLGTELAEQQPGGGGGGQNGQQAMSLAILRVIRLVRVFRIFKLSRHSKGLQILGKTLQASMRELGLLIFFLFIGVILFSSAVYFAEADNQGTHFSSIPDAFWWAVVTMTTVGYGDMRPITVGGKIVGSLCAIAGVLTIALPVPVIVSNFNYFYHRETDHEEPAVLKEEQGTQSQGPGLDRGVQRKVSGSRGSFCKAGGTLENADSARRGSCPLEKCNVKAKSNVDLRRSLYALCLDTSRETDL
In general, IC50 refers to the point on the concentration scale where inhibition reaches its midpoint. A high value points to weaker potency. With `CC1=Nc2ccnn2C(c2ccc(Cl)c(Cl)c2)C1C(=O)N1CCC[C@H]1c1n[nH]c(=O)n1C` (stereo partly drawn) [3-((2S)-1-(7-(3,4-dichlorophenyl)-5-methyl-4,7-dihydropyrazolo[1,5-a]pyrimidine-6-carbonyl)pyrrolidin-2-yl)-4-methyl-1H-1,2,4-triazol-5(4H)-one], the half-maximal inhibitory concentration (IC50) was above 1000 nM. `COC(=O)[C@@H]1CCCN1C(=O)C1C(C)=Nc2ccnn2C1c1ccc(Cl)c(Cl)c1` (stereo partly drawn) [(2S)-methyl 1-(7-(3,4-dichlorophenyl)-5-methyl-4,7-dihydropyrazolo[1,5-a]pyrimidine-6-carbonyl)pyrrolidine-2-carboxylate] registered an IC50 of 150 nM.

On to `CC1=Nc2ccnn2C(c2ccc(Cl)c(Cl)c2)C1C(=O)N1CCCC1c1ccc(F)cc1` (centres undefined) [(7-(3,4-dichlorophenyl)-5-methyl-4,7-dihydropyrazolo[1,5-a]pyrimidin-6-yl)(2-(4-fluorophenyl)pyrrolidin-1-yl)methanone], for which it took 70 nM to reach half-maximal inhibition (IC50).

With `CC1=Nc2ccnn2C(c2ccc(Cl)c(Cl)c2)C1C(=O)N1CCCC1c1ccccn1` (centres undefined) [(7-(3,4-dichlorophenyl)-5-methyl-4,7-dihydropyrazolo[1,5-a]pyrimidin-6-yl)(2-(pyridin-2-yl)pyrrolidin-1-yl)methanone], the IC50 worked out at 660 nM. With `CC1=Nc2ccnn2C(c2ccc(Cl)c(Cl)c2)C1C(=O)N1CCCC1c1cccnc1` (centres undefined) [(7-(3,4-dichlorophenyl)-5-methyl-4,7-dihydropyrazolo[1,5-a]pyrimidin-6-yl)(2-(pyridin-3-yl)pyrrolidin-1-yl)methanone], the half-maximal inhibitory concentration (IC50) is above 1000 nM. The figure for `CC1=Nc2ccnn2C(c2ccc(Cl)c(Cl)c2)C1C(=O)N1CCCC1c1ccccc1` (centres undefined) [(7-(3,4-dichlorophenyl)-5-methyl-4,7-dihydropyrazolo[1,5-a]pyrimidin-6-yl)(2-phenylpyrrolidin-1-yl)methanone] is 150 nM; for `CC1=Nc2ccnn2C(c2ccc(Cl)c(Cl)c2)C1C(=O)N1CCC[C@H]1c1nnn[nH]1` (stereo partly drawn) [((S)-2-(1H-tetrazol-5-yl)pyrrolidin-1-yl)(7-(3,4-dichlorophenyl)-5-methyl-4,7-dihydropyrazolo[1,5-a]pyrimidin-6-yl)methanone] it is above 1000 nM; for `CC1=Nc2ccnn2C(c2ccc(Cl)c(Cl)c2)C1C(=O)N1CCC[C@H]1c1nnc[nH]1` (stereo partly drawn) [((S)-2-(4H-1,2,4-triazol-3-yl)pyrrolidin-1-yl)(7-(3,4-dichlorophenyl)-5-methyl-4,7-dihydropyrazolo[1,5-a]pyrimidin-6-yl)methanone] it is above 1000 nM.

In the case of `CC1=Nc2ccnn2C(c2ccc(Cl)c(Cl)c2)C1C(=O)N1CCC[C@H]1c1nnc(N)s1` (stereo partly drawn) [((S)-2-(5-amino-1,3,4-thiadiazol-2-yl)pyrrolidin-1-yl)(7-(3,4-dichlorophenyl)-5-methyl-4,7-dihydropyrazolo[1,5-a]pyrimidin-6-yl)methanone], the half-maximal inhibitory concentration (IC50) was above 1000 nM.
